Holding throughout (assay type): in vivo
Holding throughout (design):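 grade 0 to 5 of growth suppression where 5 is 90% or more and 0 below 10%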

For test [1], the system named is Echinochloa oryzicola Vasing. The test is described as follows: Herbicidal effects in paddy field soil treatment (Test Example 1). The settings on record: paddy field soil treatment; 1000 g of the active ingredient per hectare; wettable powder added dropwise on water surface; 21st day after treatment. The procedure: (§1) Test for Herbicidal Effects in Paddy Field Soil Treatment
(§2) A 100-cm^2 plastic pot was filled with paddy field soil. After puddling and leveling, seeds of Echinochloa oryzicola Vasing, Monochoria vaginalis (Burm. f.) Presl var. plantaginea (Roxb.) Solms-Laub., and Scirpus juncoides Roxb. var. ohwianus. T. Koyama were sowed, and the soil was waterlogged to a water depth of 3 cm. On the next day, a wettable powder formulation prepared according to Preparation Example 1 was diluted with water, and was added dropwise on the water surface. The amount of application was an amount equivalent to 1000 g of the active ingredient per hectare. Thereafter, the plants were grown in a greenhouse, and on the 21st day after the treatment, the herbicidal effects were investigated according to the criteria described in Table 138.

Test [2] relates to Monochoria vaginalis (Burm. f.) Presl var. plantaginea (Roxb.) Solms-Laub. The test is described as above. Particulars: paddy field soil treatment; 1000 g of the active ingredient per hectare; wettable powder added dropwise on water surface; 21st day after treatment. The procedure:
as §1, §2

Test [3] deals with Scirpus juncoides Roxb. var. ohwianus. T. Koyama. The description is as above. Particulars: paddy field soil treatment; 1000 g of the active ingredient per hectare; wettable powder added dropwise on water surface; 21st day after treatment. The procedure:
as §1, §2

The test system of test [4] is Abutilon theophrasti medicus. As to the kind of experiment: Herbicidal effects in upland field soil treatment (Test Example 2). The settings on record: 1000 g active ingredient per hectare, 21st day after treatment, criteria of Table 138. The procedure:
(§3) Test Example 2 Test on Herbicidal Effects in Upland Field Soil Treatment A 80-cm^2 plastic pot was filled with upland field soil. Seeds of Abutilon theophrasti medicus and Amaranthus viridis L. were sowed, and soil was covered. A wettable powder formulation prepared according to Preparation Example 1 was diluted with water, and was uniformly sprayed on the soil surface with a small sprayer, in an amount equivalent to 1000 liters per hectare, such that 1000 g of the active ingredient per hectare was applied. Thereafter, the plants were grown in a greenhouse, and on the 21st day after the treatment, the herbicidal effects were investigated according to the criteria described in the Table 138 shown above.

In test [5] the test system is Amaranthus viridis L. Described as above. The settings on record: 1000 g active ingredient per hectare, 21st day after treatment, criteria of Table 138. The procedure:
as §3

Consider `COc1ccc(-n2c(=O)c(C(=O)C3=C(O)CCCC3=O)nc3ccccc32)cc1C` [II-180], for which the “Herbicidal effects index, Echinochloa oryzicola Vasing” value in test [1] was found to be 5. Also, in test [2], the “Herbicidal effects index, Monochoria vaginalis (Burm. f.) Presl var. plantaginea (Roxb.) Solms-Laub.” value (“Herbicidal effects index … (Roxb.) Solms-Laub.” for short) is 5. For the same compound, in test [3], the “Herbicidal effects index, Scirpus juncoides Roxb. var. ohwianus. T. Koyama” value was 5. Further, in test [4], the “herbicidal effect (index) on Abutilon theophrasti medicus” value amounted to 4. The “herbicidal effect (index) on Amaranthus viridis L.” value in test [5] is recorded as 5.
Consider `O=C1CCCC(O)=C1C(=O)c1nc2ccccc2n(-c2ccc3c(c2)OCCCO3)c1=O` [II-232], for which, in test [1], the “Herbicidal effects index, Echinochloa oryzicola Vasing” value is on record as 4. For the same compound, in test [2], the “Herbicidal effects index … (Roxb.) Solms-Laub.” value is 5. Moreover, the “Herbicidal effects index, Scirpus juncoides Roxb. var. ohwianus. T. Koyama” value in test [3] turned out to be 5. The “herbicidal effect (index) on Abutilon theophrasti medicus” value in test [4] is reported as 4. For the same compound, the “herbicidal effect (index) on Amaranthus viridis L.” value in test [5] worked out at 5.
Consider `CS(=O)(=O)Cn1c(=O)c(C(=O)C2=C(O)CCCC2=O)nc2ccccc21` [I-80], for which, in test [4], the “herbicidal effect (index) on Abutilon theophrasti medicus” value worked out at 5. The “herbicidal effect (index) on Amaranthus viridis L.” value in test [5] was 5.
For `COc1ccc(-n2c(=O)c(C(=O)C3=C(O)CCCC3=O)nc3cc(C)ccc32)cc1` [II-246], the “Herbicidal effects index, Echinochloa oryzicola Vasing” value in test [1] is 4. The “Herbicidal effects index … (Roxb.) Solms-Laub.” value in test [2] is on record as 5. Besides, in test [3], the “Herbicidal effects index, Scirpus juncoides Roxb. var. ohwianus. T. Koyama” value is given as 5.
With `COc1ccc2c(c1)nc(C(=O)C1=C(O)CCCC1=O)c(=O)n2-c1ccccc1` [II-250], in test [4], the “herbicidal effect (index) on Abutilon theophrasti medicus” value is 5. Besides, the “herbicidal effect (index) on Amaranthus viridis L.” value in test [5] was determined as 5.
On to `COc1cccc(Cn2c(=O)c(C(=O)C3=C(O)CCCC3=O)nc3ccccc32)c1` [I-125], for which the “Herbicidal effects index, Echinochloa oryzicola Vasing” value in test [1] is listed as 4. Also, in test [2], the “Herbicidal effects index … (Roxb.) Solms-Laub.” value came out at 5. Also, in test [3], the “Herbicidal effects index, Scirpus juncoides Roxb. var. ohwianus. T. Koyama” value was 5.
`COc1ccc(-n2c(=O)c(C(=O)C3=C(O)CCCC3=O)nc3c(F)c(F)c(OC)c(F)c32)cc1` [II-302]: in test [4], the “herbicidal effect (index) on Abutilon theophrasti medicus” value was determined as 4. Besides, the “herbicidal effect (index) on Amaranthus viridis L.” value in test [5] stood at 5.
For `COc1ccc(-n2c(=O)c(C(=O)C3=C(O)CCCC3=O)nc3ccccc32)cc1Cl` [II-179], the “Herbicidal effects index, Echinochloa oryzicola Vasing” value in test [1] came to 4. For the same compound, the “Herbicidal effects index … (Roxb.) Solms-Laub.” value in test [2] is given as 5. In test [3], the “Herbicidal effects index, Scirpus juncoides Roxb. var. ohwianus. T. Koyama” value came to 5.
As for `O=C1CCCC(O)=C1C(=O)c1nc2ccccc2n(C2CCSCC2)c1=O` [I-166], the “Herbicidal effects index, Echinochloa oryzicola Vasing” value in test [1] is 4. Also, the “Herbicidal effects index … (Roxb.) Solms-Laub.” value in test [2] is given as 5. Also, the “Herbicidal effects index, Scirpus juncoides Roxb. var. ohwianus. T. Koyama” value in test [3] was 5.
`COc1ccccc1Cn1c(=O)c(C(=O)C2=C(O)CCCC2=O)nc2ccccc21` [I-120]: in test [1], the “Herbicidal effects index, Echinochloa oryzicola Vasing” value turned out to be 4. Besides, in test [2], the “Herbicidal effects index … (Roxb.) Solms-Laub.” value worked out at 5. Also, in test [3], the “Herbicidal effects index, Scirpus juncoides Roxb. var. ohwianus. T. Koyama” value was 5.
As for `COc1ccc(-n2c(=O)c(C(=O)C3=C(O)CCCC3=O)nc3ccccc32)c(OC)c1` [II-177], the “Herbicidal effects index, Echinochloa oryzicola Vasing” value in test [1] came out at 4. The “Herbicidal effects index … (Roxb.) Solms-Laub.” value in test [2] came to 5. In addition, the “Herbicidal effects index, Scirpus juncoides Roxb. var. ohwianus. T. Koyama” value in test [3] came out at 5.
Consider `COC(=O)c1ccc(-n2c(=O)c(C(=O)C3=C(O)CCCC3=O)nc3ccccc32)cc1` [II-146], for which the “herbicidal effect (index) on Abutilon theophrasti medicus” value in test [4] is 4. In addition, in test [5], the “herbicidal effect (index) on Amaranthus viridis L.” value was 5.
Take `COc1ccc(-n2c(=O)c(C(=O)C3=C(O)CCCC3=O)nc3cc(Cl)ccc32)cc1` [II-195]: the “Herbicidal effects index, Echinochloa oryzicola Vasing” value in test [1] is 5. Moreover, the “Herbicidal effects index … (Roxb.) Solms-Laub.” value in test [2] was determined as 5. Moreover, the “Herbicidal effects index, Scirpus juncoides Roxb. var. ohwianus. T. Koyama” value in test [3] worked out at 5.
In the case of `Cn1ccc2cc(-n3c(=O)c(C(=O)C4=C(O)CCCC4=O)nc4ccccc43)ccc21` [I-276], the “Herbicidal effects index, Echinochloa oryzicola Vasing” value in test [1] worked out at 5. Also, the “Herbicidal effects index … (Roxb.) Solms-Laub.” value in test [2] is on record as 5. Further, the “Herbicidal effects index, Scirpus juncoides Roxb. var. ohwianus. T. Koyama” value in test [3] stood at 5.
For `COc1ccc(-n2c(=O)c(C(=O)C3=C(O)CCCC3=O)nc3cc(F)ccc32)cc1` [II-187], the “Herbicidal effects index, Echinochloa oryzicola Vasing” value in test [1] is 5. Moreover, the “Herbicidal effects index … (Roxb.) Solms-Laub.” value in test [2] amounted to 5. In addition, the “Herbicidal effects index, Scirpus juncoides Roxb. var. ohwianus. T. Koyama” value in test [3] stood at 5.
For the compound `COc1ccc(-n2c(=O)c(C(=O)C3=C(O)CCCC3=O)nc3c(F)c(F)ccc32)cc1` [II-258], the “Herbicidal effects index, Echinochloa oryzicola Vasing” value in test [1] turned out to be 4. In addition, the “Herbicidal effects index … (Roxb.) Solms-Laub.” value in test [2] is recorded as 5. Also, the “Herbicidal effects index, Scirpus juncoides Roxb. var. ohwianus. T. Koyama” value in test [3] amounted to 5.
With `O=C1CCCC(O)=C1C(=O)c1nc2cc(F)ccc2n(Cc2ccccc2)c1=O` [I-280], the “Herbicidal effects index, Echinochloa oryzicola Vasing” value in test [1] was found to be 5. The “Herbicidal effects index … (Roxb.) Solms-Laub.” value in test [2] is on record as 5. Also, the “Herbicidal effects index, Scirpus juncoides Roxb. var. ohwianus. T. Koyama” value in test [3] is given as 5.
Turning to `COc1ccc(-n2c(=O)c(C(=O)C3=C(O)CCCC3=O)nc3ccccc32)cc1OC` [II-169], the “Herbicidal effects index, Echinochloa oryzicola Vasing” value in test [1] worked out at 5. The “Herbicidal effects index … (Roxb.) Solms-Laub.” value in test [2] worked out at 5. Further, the “Herbicidal effects index, Scirpus juncoides Roxb. var. ohwianus. T. Koyama” value in test [3] turned out to be 5.
With `COc1ccc(Cn2c(=O)c(C(=O)C3=C(O)CCCC3=O)nc3ccccc32)cc1` [I-126], in test [1], the “Herbicidal effects index, Echinochloa oryzicola Vasing” value turned out to be 4. Further, the “Herbicidal effects index … (Roxb.) Solms-Laub.” value in test [2] worked out at 5. In test [3], the “Herbicidal effects index, Scirpus juncoides Roxb. var. ohwianus. T. Koyama” value was found to be 5.
Turning to `CC(C)(C)n1c(=O)c(C(=O)C2=C(O)CCCC2=O)nc2ccccc21` [I-18], the “herbicidal effect (index) on Abutilon theophrasti medicus” value in test [4] is 5. Besides, the “herbicidal effect (index) on Amaranthus viridis L.” value in test [5] was 5.
Turning to `COc1ccc(-n2c(=O)c(C(=O)C3=C(O)CCCC3=O)nc3c(Cl)cc(Cl)cc32)cc1` [II-262], in test [4], the “herbicidal effect (index) on Abutilon theophrasti medicus” value worked out at 4. For the same compound, the “herbicidal effect (index) on Amaranthus viridis L.” value in test [5] amounted to 5.
As for `CCNc1nc(NC(C)C)nc(-n2c(=O)c(C(=O)C3=C(O)CCCC3=O)nc3ccccc32)n1` [I-274], in test [1], the “Herbicidal effects index, Echinochloa oryzicola Vasing” value was found to be 5. In addition, in test [2], the “Herbicidal effects index … (Roxb.) Solms-Laub.” value is listed as 5. Also, in test [3], the “Herbicidal effects index, Scirpus juncoides Roxb. var. ohwianus. T. Koyama” value was determined as 4.
In the case of `CC(=O)c1ccc(-n2c(=O)c(C(=O)C3=C(O)CCCC3=O)nc3ccccc32)cc1` [II-140], the “Herbicidal effects index, Echinochloa oryzicola Vasing” value in test [1] is recorded as 5. Further, the “Herbicidal effects index … (Roxb.) Solms-Laub.” value in test [2] stood at 5. For the same compound, the “Herbicidal effects index, Scirpus juncoides Roxb. var. ohwianus. T. Koyama” value in test [3] is given as 4.
As for `O=C1CCCC(O)=C1C(=O)c1nc2ccccc2n(-c2ccc(OCC(F)(F)F)cc2)c1=O` [II-209], the “Herbicidal effects index, Echinochloa oryzicola Vasing” value in test [1] was determined as 5. In addition, in test [2], the “Herbicidal effects index … (Roxb.) Solms-Laub.” value was 5. The “Herbicidal effects index, Scirpus juncoides Roxb. var. ohwianus. T. Koyama” value in test [3] stood at 5.
Turning to `COc1c(F)cc(-n2c(=O)c(C(=O)C3=C(O)CCCC3=O)nc3ccc(C)cc32)cc1F` [II-248], the “Herbicidal effects index, Echinochloa oryzicola Vasing” value in test [1] was 5. Further, the “Herbicidal effects index … (Roxb.) Solms-Laub.” value in test [2] amounted to 5. Further, in test [3], the “Herbicidal effects index, Scirpus juncoides Roxb. var. ohwianus. T. Koyama” value is 5.
For the compound `O=C1CCCC(O)=C1C(=O)c1nc2ccccc2n(Cc2ccc(Cl)cc2)c1=O` [I-113], the “Herbicidal effects index, Echinochloa oryzicola Vasing” value in test [1] amounted to 5. In addition, the “Herbicidal effects index … (Roxb.) Solms-Laub.” value in test [2] worked out at 5. In test [3], the “Herbicidal effects index, Scirpus juncoides Roxb. var. ohwianus. T. Koyama” value stood at 5.
On to `CC(C(=O)OC(C)(C)C)n1c(=O)c(C(=O)C2=C(O)CCCC2=O)nc2cccnc21` (centres unmarked) [III-233], for which the “herbicidal effect (index) on Abutilon theophrasti medicus” value in test [4] was 5. In test [5], the “herbicidal effect (index) on Amaranthus viridis L.” value was found to be 5.
With `COc1ccc(-n2c(=O)c(C(=O)C3=C(O)CCCC3=O)nc3ccccc32)c(Cl)c1` [II-175], in test [1], the “Herbicidal effects index, Echinochloa oryzicola Vasing” value amounted to 4. In addition, the “Herbicidal effects index … (Roxb.) Solms-Laub.” value in test [2] turned out to be 5. In addition, in test [3], the “Herbicidal effects index, Scirpus juncoides Roxb. var. ohwianus. T. Koyama” value came to 5.
With `COc1ccc(-n2c(=O)c(C(=O)C3=C(O)CCCC3=O)nc3ccc(OC)cc32)cc1` [II-253], the “Herbicidal effects index, Echinochloa oryzicola Vasing” value in test [1] is on record as 5. The “Herbicidal effects index … (Roxb.) Solms-Laub.” value in test [2] is on record as 5. Besides, in test [3], the “Herbicidal effects index, Scirpus juncoides Roxb. var. ohwianus. T. Koyama” value is listed as 5.
`Cn1c(=S)c(C(=O)C2=C(O)CCCC2=O)nc2ccccc21` [I-256, 3-hydroxy-2-(1-methyl-2-thioxo-1,2-dihydroquinoxalin-3-yl-carbonyl)-2-cyclohexen-1-one]: the “herbicidal effect (index) on Abutilon theophrasti medicus” value in test [4] was 5. In test [5], the “herbicidal effect (index) on Amaranthus viridis L.” value is reported as 5.

The record behind these values is patent US8389523B2, “Substituted quinoxaline and an agrochemical composition thereof” (Kumiai Chemical Industry Co., Ltd., priority 2007, dated 2013).
